Measured values from article PMC3626250, “Effects of Borneol on Pharmacokinetics and Tissue Distribution of Notoginsenoside R1 and Ginsenosides Rg1 and Re in Panax notoginseng in Rabbits” (Journal of Analytical Methods in Chemistry, 2013).
Read-outs that look alike come from different tables or passages of the source. Marks after values point to notes of the source that are not given here.

What was measured:
[1] = Pharmacokinetics study in rabbits after oral Panax notoginseng extract with or without Borneol (plasma, SPE-HPLC-MS); type: in vivo, New Zealand rabbits; settings: for Cmax / Tmax / CL/F / half-life / AUC(0-inf) / AUC(0-t): New Zealand, rabbit, plasma; for CL/F: read-out: CL/F; for half-life: read-out: t 1/2β; for AUC(0-inf) / AUC(0-t): po
Experimental: Liquid chromatography was carried out on an Agilent 1100 HPLC system with an auto sampler, a quaternary pump and a vacuum degasser (Waldoboro, Frankfurt, Germany). Operations were controlled by Agilent Chemstation 4.2 software (Littleforts, Philadelphia, USA). Separations were achieved on a reversed-phase HPLC column (Zorbax SB-C18 150 × 2.1 mm, 5.0 μm particle size). A solution of acetonitrile and water (V : V, 20 : 80) with 0.1% (V : V) ammonium formate was used as the mobile phase. The flow rate was set at 0.3 mL·min^−1 and the column temperature was 25°C. Under these conditions, NGR1, GRg1, and GRe in plasma samples were separated efficiently without any interferences.
MS^n detection was performed on an Agilent SL trap MS system (Waldoboro, Frankfurt, Germany). The ion source-dependent (electrospray ionization) conditions were the same for all analyses with a spraying voltage of −4500 V in the negative ion mode. The pressure of the nebulizing gas (nitrogen) was set at 35 p.s.i. The flow rate of the drying gas (nitrogen) was set at 7.0 L·min^−1 with the temperature of 325°C. The collision gas (He) for the MS^n mode at trap was set at flow of 4 (instrument unit). The voltage of the capillary was set at 4000 V, and its end plate offset was −500 V. Scan range was from 500 to 1500 m/z.
Frozen plasma and tissue samples were thawed in a water bath at 37°C and were then vortexed followed by centrifuging at 5000 r·min^−1 for 5 min. An aliquot of 1.0 mL of the supernatant from each sample was loaded onto C18 Bond Elute Solid phase extraction (SPE) cartridges (1000 mg, 1 cc reservoir, Varian, Harbor City, CA, USA) pretreated with 2.0 mL hexane, isopropanol, methanol, and water, sequentially. The SPE cartridges were then washed with 1.0 mL water, 20% methanol/water solution, 40% methanol/water solution, and 60% methanol/water solution, sequentially. Finally, analytes were eluted twice with 1.0 mL of 70% methanol/water solution. The eluant was evaporated to dryness under nitrogen. The residues were then reconstituted in 1.0 mL mobile phase. An aliquot of 10 μL was injected into the LC-MS system.
Eighteen rabbits were randomly divided into three groups of 6 subjects and were orally given 3.0 mL·kg^−1 normal saline, 3.0 mL·kg^−1 Panax notoginseng extract, and 3.0 mL·kg^−1 Panax notoginseng extract combined with Borneol, respectively. Plasma samples were collected in heparinized tubes from the central ear artery at 0.0, 5.0, 10.0, 20.0, 30.0, 45.0, 60.0, 75.0, 90.0, 120.0, 180.0, 300.0 and 480.0 min after dose. After each sampling, the same volume of 0.9% saline solution was injected from the ear vein to compensate the loss of blood. The plasma obtained was frozen at −70°C for storage and was processed prior to analysis with the proposed method as described in Section 2.6.
Statistical analysis of the biological data was performed using the Student's t-test. The drug analysis system 2.0 (DAS 2.0, T.C.M., Shanghai, China) was used to calculate the pharmacokinetic parameters, such as the area under curve (AUC), the maximum plasma concentration (C max), the time needed to reach the maximum plasma concentration (t max) and the half-life of absorption, and distribution and elimination (t 1/2Ka, t 1/2α, t 1/2β).

[2] = Stability in plasma samples and tissue homogenates of rabbits; type: physicochemical; settings: kidney homogenate
Experimental: The precision of the assay was determined for the quality control (QC) plasma and tissue […] Intraday precision and accuracy were determined via repeated analysis of the QC plasma and tissue samples within one day (n = 5). Interday precision and accuracy were determined via repeated analysis on five consecutive days. The concentration of each sample was determined using the prepared calibration curve and analyzed on the same day. All stabilities were evaluated at different concentration levels. Short-term stability of NGR1, GRg1, and GRe were assessed by analyzing QC samples kept at 4°C for 4–24 h. Freeze-thaw stability was evaluated at three consecutive freeze-thaw cycles. Long-term stability was studied by analyzing samples during a period of 8 weeks of storage at −70°C.
The stability studies were performed by evaluating small variations in three different conditions.

[3] = oral 3.0 mL·kg^−1 Panax notoginseng extract
[4] = oral 3.0 mL·kg^−1 Panax notoginseng extract combined with Borneol

Cmax [1, 3]: 2360 ± 150 ng/mL | Tmax [1, 3]: 30 min | Cmax [1, 4]: 2870 ± 340 ng/mL | Tmax [1, 4]: 30 min | CL/F [1, 4]: 119 ± 40 mL/min/kg | half-life [1, 4]: 69.3 ± 10.7 min | CL/F [1, 3]: 123 ± 67 mL/min/kg | half-life [1, 3]: 69.3 ± 12 min | AUC(0-inf) [1, 3]: 10900 ng·h/mL | AUC(0-t) [1, 3]: 8250 ng·h/mL | AUC(0-inf) [1, 4]: 27900 ng·h/mL | AUC(0-t) [1, 4]: 9090 ng·h/mL | K 10 [1, 3]: 0.005 ± 0.001 min⁻¹ | K 12 [1, 3]: 0.011 ± 0.003 min⁻¹ | K 21 [1, 3]: 0.012 ± 0.003 min⁻¹ | K a [1, 3]: 0.039 ± 0.004 min⁻¹ | T lag [1, 3]: 0 ± 0 min | V/F [1, 3]: 24.5 ± 4.5 L/kg | t 1/2Ka [1, 3]: 17.8 ± 2.4 min | t 1/2α [1, 3]: 38.5 ± 2.5 min | α [1, 3]: 0.018 ± 0.005 min⁻¹ | β [1, 3]: 0.010 ± 0.007 min⁻¹ | K 10 [1, 4]: 0.003 ± 0.00 min⁻¹ | K 12 [1, 4]: 0.025 ± 0.005** min^−1 | K 21 [1, 4]: 0.013 ± 0.001 min⁻¹ | K a [1, 4]: 0.051 ± 0.010* min^−1 | T lag [1, 4]: 1.25 ± 0.34 min | V/F [1, 4]: 35.9 ± 8.7 L/kg | t 1/2Ka [1, 4]: 13.5 ± 4.6 min | t 1/2α [1, 4]: 22.3 ± 3.1 min | α [1, 4]: 0.031 ± 0.011 min⁻¹ | β [1, 4]: 0.010 ± 0.001 min⁻¹ | Remaining, Short-term stability ([2]; QC 0.4 μg·mL^−1, 4°C for 4–24 h): 91.5 ± 6.5% | Remaining, Long-term stability ([2]; QC 0.4 μg·mL^−1, 8 weeks at −70°C): 90.8 ± 6.1% | Remaining, Freeze-thaw stability ([2]; QC 0.4 μg·mL^−1, three freeze-thaw cycles): 90.5 ± 7.8% | Remaining, Short-term stability ([2]; QC 3.0 μg·mL^−1, 4°C for 4–24 h): 95.9 ± 4.5% | Remaining, Long-term stability ([2]; QC 3.0 μg·mL^−1, 8 weeks at −70°C): 91.6 ± 11.2% | Remaining, Freeze-thaw stability ([2]; QC 3.0 μg·mL^−1, three freeze-thaw cycles): 94.7 ± 3.7% | Remaining, Short-term stability ([2]; QC 40.0 μg·mL^−1, 4°C for 4–24 h): 102.1 ± 5.7% | Remaining, Long-term stability ([2]; QC 40.0 μg·mL^−1, 8 weeks at −70°C): 95.7 ± 4.6% | Remaining, Freeze-thaw stability ([2]; QC 40.0 μg·mL^−1, three freeze-thaw cycles): 91.2 ± 10.6%
SMILES: CC(C)=CCC[C@](C)(O[C@@H]1O[C@H](CO)[C@@H](O)[C@H](O)[C@H]1O)[C@H]1CC[C@]2(C)[C@@H]1[C@H](O)C[C@@H]1[C@@]3(C)CC[C@H](O)C(C)(C)[C@@H]3[C@@H](O[C@@H]3O[C@H](CO)[C@@H](O)[C@H](O)[C@H]3O)C[C@]12C [GRg1, ginsenoside Rg1]
